Where “and” joins values, the source holds several entries; their conditions need not be identical. Identical values can stand only once.

For assay [1], the target named is T1, HLA-A2 (Homo sapiens, UniProt P04439, D140Y/D185E/D98H/E176V/E277Q/G131W/G231S/I119V/I121R/I166T/I218V/L300P/L318F/N151K/N90K/P208A/P217A/Q86G/Q94H/R138H/R169H/T345S).
T1 construct: measure HLA-A2.1 surface expression on the A2+ T2 cell line coated with the peptide; host or cells: T2 cells
Nature of the assay: Peptide-binding assay: stabilization of HLA-A2 on the surface of T2 cells, compared to PR1. An excerpt:
(§1) Nonameric peptides derived from cyclin E1 and cyclin E2 and predicted to bind to the HLA-A2 allele have similar amino acid sequences, differing only at position 7. Thus, the binding of CCNE1144-152 (cyclin E1 derived) and CCNE2144-152 (cyclin E2 derived) was compared to that of PR1 by a peptide-binding assay. The ability of CCNE1144-152 and CCNE2144-152 to stabilize HLA-A2 on the surface of T2 cells was almost the same as that of PR1 (FI CCNE1144-152/FI PR1=1.008, FI CCNE2144-152/FI PR1=1.189). […] In 3 of 7 donors, CCNE1144-152-stimulated CTL lines killed both CCNE1144-152 and CCNE 2144-152-pulsed T2 cells but not non-peptide-pulsed T2 cells and irrelevant peptide-pulsed T2 cells. In 4 of 7 same donors, CCNE2144-152-stimulated CTL lines killed both CCNE2144-152 and CCNE1144-152-pulsed T2 cells but not non-peptide-pulsed T2 cells and irrelevant peptide-pulsed T2 cells.

The test system of assay [2] is HLA-A2 transfected K562 leukemic cell line. Nature of the assay: Killing of leukemic cell line by CCNE1 peptide-stimulated CTL lines. The format is cell-based, human. An excerpt: Thus, each peptide-specific CTLs can recognize both peptides with HLA-A2, but the immunogenicity of each peptide is different between individuals. Moreover, one of 4 CCNE1144-152-stimulated CTL lines which killed CCNE1144-152-pulsed T2 cell killed HLA-A2 transfected K562 leukemic cell line which is over-expressing cyclin E1 protein, but not non-transfected K562 leukemic cell line. Thus, CCNE1144-152-specific CTL can distinguish leukemic cell lines from normal PBMCs. From the data, it was concluded that cyclin E1/E2 derived peptides are potential tumor-antigens, because 1) cyclin E1/E2 are highly over-expressed in hematological malignancy, 2) cyclin E1/E2 peptides can sufficiently bind to HLA-A2 to stimulate CTL and 3) CCLE1144-152 specific CTL preferentially kills leukemic cell lines HLA-A2 restrictively.

Assay [3] has as its system peptide-pulsed T2 cells. Nature of the assay: Elicitation of cyclin E peptide-specific CTL with peptide-pulsed T2 cells. The format is cell-based, human. The conditions noted are these: PBMCs from 7 HLA-A2 positive normal donors.
Description: as §1

Assay [4] concerns PR1-CTL from a healthy donor. Nature of the assay: Annexin V apoptosis of PR1-CTL challenged with peptide-pulsed T2 cells. Type of assay: cell-based, human. The conditions noted are these: for apoptosis of high avidity PR1-CTL: T2 cells pulsed with 20 μM peptide, Annexin V 16 to 18 hr. An excerpt: High PR1 concentration and proteinase 3-overexpressing CML cells induce apoptosis of high avidity PR1-specific CTL. […] All high avidity PR1-CTL exposed to high dose PR1 were dead after 36 to 48 hr of co-culture.

Assay [5] deals with HLA-A2.1 (Homo sapiens, UniProt P04439, D140Y/D185E/D98H/E176V/E277Q/G131W/G231S/I119V/I121R/I166T/I218V/L300P/L318F/N151K/N90K/P208A/P217A/Q86G/Q94H/R138H/R169H/T345S). Nature of the assay: HLA-A2.1 surface expression on peptide-coated T2 cells by indirect flow cytometry (BB7.2). Type of assay: binding. The conditions noted are these: for Median Channel of Fluorescence of HLA-A2 Expression on T2: peptide-coated T2 cells, background HLA-A2 22; for surface HLA-A2.1 expression on peptide-pulsed T2 cells: compared with T2 cells with no added peptide / positive control influenza peptide.

Assay [6] concerns T2 cells. Nature of the assay: Peptide-specific cytotoxicity of peptide-elicited CTL lines against peptide-loaded T2 cells. The conditions noted are these: T2 cells loaded with the same peptide; 4-hr assay, varying E:T.
Description: CTL cytotoxicity assay. A semiautomated minicytotoxicity assay was used to determine specific lysis as described previously (Molldrem, 2000; Molldrem et al., 1996). Briefly, effector cells were prepared in doubling dilutions from 6×10^3 to 25×10^3 cells/well and were plated in 40 μl, 60-well Terasaki trays (Robbins Scientific, Sunnyvale, Calif., USA) with six replicates per dilution. Target cells (T2 cells, marrow-derived leukemic cells, or BM from a healthy donor) at a concentration of 2×10^6 cells/ml were stained with 10 μg/ml of Calcein-AM (Molecular Probes Inc.) for 60 min at 37° C. After washing three times in CM plus 10% AB, target cells were resuspended at 10^5 cells/ml, and 10^3 target cells in 10 μl medium were added to each well containing effector cells. Wells with target cells alone and medium alone were used for maximum (max) and minimum (min.) fluorescence emission, respectively. After 4 hr incubation at 37° C. in 5% CO2, 5 μl FluoroQuench (One Lambda Inc., Canoga Park, Calif., USA) was added to each well, and the trays were centrifuged for 1 min at 60 g before measurement of fluorescence using an automated CytoFluor II plate reader (PerSeptive Biosystems, Framingham, Mass., USA). The percentage of lysis was calculated as follows: % lysis={1−[(mean experimental mission−mean min.)/(mean max−mean min.)]}×100%.
Induction of Primary CTL responses to peptides. These peptides were next used to stimulate T cells specific for peptide-coated targets. PBMC from a normal healthy donor heterozygous for HL-A2.1 were stimulated with peptide-pulsed T2 cells. […] Briefly, T2 cells (which co-express the costimulatory molecule B7.1) were washed 3 times in serum-free RPMI culture media supplemented with penicillin/streptomycin and glutamine (CM) and incubated with peptide at 20 μg/mL for 2 hr in CM. The peptide loaded T2 cells were then irradiated with 7500 cGy, washed once, and suspended with freshly isolated PBMC at a 1:1 ratio in CM supplemented with 10% human serum (HS) (Sigma, St. Louis, Mo.). After 7 days in culture, a second stimulation was performed and the following day, 60 IU/mL of recombinant human interleukin-2 (rhIL2) (Biosource International, Camarillo, Calif.) was added. After 14 days in culture a third stimulation was performed, followed on day 15 by addition of rhIL-2. A fourth stimulation was performed on day 21 followed on day 22 by the addition of rhIL2. After a total of 27 days in culture, the peptide-stimulated T cells were harvested and tested for peptide-specific cytotoxicity toward Calcein AM-labeled T2 cells, leukemia cell lines, and fresh human leukemia cells.
The five MPO peptides discussed above, were used to stimulate T cells specific for peptide-coated targets. […]
A short description of assay [7]: Cytotoxicity of peptide-elicited CTL lines against fresh myeloid leukemia marrow and normal marrow. The format is cell-based, human. An excerpt:
(§2) PR1 specific CTL preferentially lyse human myeloid leukemia cells. It was next determined whether the PR1-specific CTL line was capable of lysing allogeneic human myeloid leukemia cells from HLA-A2.1 positive individuals. As controls, two cell lines expressing low levels of Pr3 were used: HLA-A2.1 transfected K562 cells and U937 cell line which lack HLA-A2.1 and would therefore be incapable of presenting peptides in an HLA-A2.1-restricted manner. Cryopreserved bone marrow cells from patients P1-P4, and marrow cells from a healthy normal volunteer (D2, a bone marrow donor for an allogeneic bone marrow transplant performed on patient P3) were thawed and used as targets for the PR1-specific CTL line.
(§3) It was next determined whether the MY2 and MY4-specific CTL lines were capable of lysing allogeneic human myeloid leukemia cells from HLA-A2.1 positive individuals. The targets were BM cells from pre-transplant HLA-A2.1-positive AML patients. As controls, BM cells from HLA-A2.1-negative AML patients, BM from HLA-A2.1-positive healthy donors and two cell lines expressing low levels of MPO were used: HLA-A2.1 transfected K562 cells and the U937 cell line which lacks HLA-A2.1 and would therefore be incapable of presenting peptides in an HLA-A2.1-restricted manner.

Assay [8] has as its system human myeloid leukemia cells. Described as above. Type of assay: cell-based.
Description: as §2, §3

Assay [9] deals with AML colony-forming units (CFU-GM). Nature of the assay: Colony inhibition assay with MY4 peptide-pulsed CTL. The format is cell-based, human. An excerpt: In contrast there was no inhibition of CFUGM from normal marrow, D1 and D2, the corresponding HLA identical marrow donors for P1 and P2.
Assay [10] concerns NE-HMy.CIR-A2. Nature of the assay: Proliferation (BrDU incorporation) of PR1-specific CTL lines with NE-transfected B cells. Type of assay: cell-based, human. The conditions noted are these: CTL lines from two healthy donors. An excerpt: (§4) The leukemia-associated antigen PR1 is derived from both proteinase 3 and neutrophil elastase proteins. The inventors have shown that killing of leukemia cells by PR1-specific CTL correlates with P3 overexpression. However, the PR1 sequence is also contained within neutrophil elastase (NE), which is also aberrantly expressed in leukemia cells. To determine whether PR1 is processed and presented from either protein, P3- and NE-transfected B cells were used as target cells in a proliferation assay with PR1-specific T cells. Full-length P3 and NE cDNA was cloned from the promyelocytic HL-60 cell line based on published sequences. The sequences were subcloned into an EGFP-containing vector (pCMS-EGFP) with a CMV promoter to drive constitutive expression. The B cell line, HMy-CIR, previously stably transfected with the HLA-A*0201 gene, was transfected with P3-pCMS-EGFP and NE-pCMS-EGFP by electroporation for 24 hr. GFP-expressing cells (P3-HMy.CIR-A2 and NE-HMy.CIR-A2, respectively) were selected by FACSorting and high transfection levels were confirmed by fluorescence microscopy. […] By contrast, NE transcript numbers from a transfected clone were 7-fold less than in HL-60 cells. Western blotting confirmed protein expression in the NE-HMy.CIR-A2-transfected cells, although expression was similarly less than in HL-60 cells. […]

Assay [11] relates to human myeloid leukemia cells. Nature of the assay: Cytotoxicity of peptide-elicited CTL lines against fresh myeloid leukemia marrow and normal marrow. Type of assay: cell-based. The source holds these as a separate data set.
Assay [12] concerns HMy2.CIR-A2 cells transfected with Pr3. Nature of the assay: Lysis of Pr3-transfected B cells by PR1 specific CTL. Type of assay: cell-based, human. The conditions noted are these: E:T 25:1. As to the method:
Expression of proteinase 3 following transfection into and HMy2.CIR and HMy2.CIR-A2 cells. […] The parental HMy2.CIR cell line, which has lost expression of HLA-A and -B, and the HLA-A2.1-transfected HMy2.CIR cells (named HMy2.CIR-A2), were both transfected with Pr3 as described below.
Ten million HMy2.CIR (ATCC, Rockville, Md.), or 10 million HMy2.CIR-A2 cells were each washed in phosphate buffered saline (PBS) and re-suspended in 0.8 mL of ice-cold PBS and put into an electroporation cuvette with 20 μg of circular plasmid DNA. The mixture was exposed to an electric pulse of 320 volts at 960 microF and incubated on ice for 10 min. Cells were then added to 10 mL of pre-warmed CM. The following day, the CM was replaced. On day 2, cells were grown under selection conditions using 200 μg/mL Zeocin. Following one week of selection, the cells were subcloned by limiting dilution under Zeocin selection, and 6 clones were isolated.
HMy.2.CIR-A2 cells transfected with Pr3 are susceptible to lysis by PR1 specific CTL. It was next determined whether the transfected HMy2.CIR-A2 cells could be lysed by PR1 specific CTL. The PR1 specific CTL were elicited in the manner previously described, and after 22 days in culture were combined at a 25:1 E:T ratio with HMy2.CIR-A2 transfected either with the Pr3-containing vector pRTZ.2, or the empty vector containing the reporter gene, CAT. […]

The subject of assay [13] is patients with myeloid leukemia. Nature of the assay: Phase I/II PR1 peptide vaccine study. Type of assay: in vivo, human.
Description: PR1 peptide is injected subcutaneously in incomplete Freund's adjuvant every 3 weeks for 3 injections to induce a PR1 specific host response against the myeloid leukemia. […] Vaccination at 3 dose levels of peptide with a fixed amount of IFA will be conducted, and stopping criteria will be guided by established toxicity criteria.
HLA-A2^+ patients with CML (interferon-resistant or relapsed after BMT), AML (smoldering relapse or ≧2nd CR) or MDS (RAEB or RAEBt) with no detectable antibodies to proteinase 3 (no detectable cANCA) were eligible. Patients that relapsed after BMT or those ineligible for BMT were also eligible for study. Pregnant patients, HIV+ patients, and those with known vasculitis were excluded. Patients were required to have immunosuppression (i.e. cyclosporine, steroids) discontinued 4 weeks prior to study entry.
Secondarily, clinical responses were assessed by standard criteria with bone marrow biopsy, cytogenetic studies (standard chromosome banding) and molecular studies (PCR for bcr-abl or other known abnormalities such as t(15;17), inv16, etc.) 3 weeks after the last vaccination. Patients were seen and evaluated in clinic every 3 weeks during the study period. Both vialed PR1 peptide (NSC698102) and the adjuvant (Montanide ISA-51, NSC675756) were used in this study. […]
Assay [14] relates to P3-HMy.CIR-A2 target cells. Nature of the assay: Proliferation (BrDU incorporation) of PR1-specific CTL lines with P3-transfected B cells. The format is cell-based, human. The conditions noted are these: CTL lines from two healthy donors.
Description: as §4

“CCNE1144-152: nonameric peptide derived from cyclin E1, predicted to bind to the HLA-A2 allele”: the “FI peptide/FI PR1 (HLA-A2 stabilization on T2 cells)” value in assay [1] is recorded as 1.008. Further, the “CTL lines that killed HLA-A2 transfected K562 but not non-transfected K562” value in assay [2] was “one of 4”. Besides, the “donors in whom peptide-stimulated CTL lines killed peptide-pulsed T2 cells” value in assay [3] is reported as 3 of 7.
As to “CCNE2144-152: nonameric peptide derived from cyclin E2, predicted to bind to the HLA-A2 allele (ILLDWLLEV)”, the “FI peptide/FI PR1 (HLA-A2 stabilization on T2 cells)” value in assay [1] was found to be 1.189. In [3], the “donors in whom peptide-stimulated CTL lines killed peptide-pulsed T2 cells” value is 4 of 7.
For the substance “Influenza nucleoprotein: control influenza peptide, Influenza B nucleoprotein (aa 85-94), known high binding affinity to HLA-A2.1 (KLGEFYNQMM) [reference compound]”, in [4], the “apoptosis of high avidity PR1-CTL” value is reported as “no apoptosis was observed”. Moreover, the “Median Channel of Fluorescence of HLA-A2 Expression on T2” value (from here on “Median Channel”) in [5] was found to be 194.
In the case of KLLLALAGL [MY2], the “peptide-specific lysis by CTL line generated against the peptide” value (“peptide-specific lysis” for short) in assay [6] is recorded as “high specific lysis”. Also, the “specific lysis of HLA-A2+ normal BMC by peptide-specific CTL” value in assay [7] is listed as 45%. Moreover, in [7] (marrow cells from HLA-A2.1-positive normal healthy donor, E:T 20:1), the “lysis by MY2-specific CTL lines” value amounted to 43%. Besides, the “lysis of HLA-A2.1-positive AML marrow cells by peptide-specific CTL” value in assay [8] is given as “readily lysed”.
For the substance KLNDILLIQL [PR71], in assay [5], the “surface HLA-A2.1 expression on peptide-pulsed T2 cells” value (“surface HLA-A2.1 expression” below) is given as “strong peptide binding”.
On to KLNDVLLIQL [PR7V], for which the “surface HLA-A2.1 expression” value in assay [5] is given as “strong peptide binding”.
As to RLFEQVMRI [MY4], the “peptide-specific lysis” value in [6] was “tested similarly”. Moreover, the “inhibition of CFU-GM by MY4 peptide-pulsed CTL” value in [9] (normal marrow, D1 and D2 (HLA identical donors)) is reported as “no inhibition”. Besides, the “inhibition of CFU-GM by MY4 peptide-pulsed CTL (CTL1)” value in assay [9] (patient P1 (M2-AML)) turned out to be 63%; in assay [9] (patient P2 (M4-AML)), 34%. Besides, the “specific lysis of HLA-A2+ normal BMC by peptide-specific CTL” value in assay [7] is listed as “no lysis of normal BMC”. For the same substance, in assay [8], the “lysis of HLA-A2.1-positive AML marrow cells by peptide-specific CTL” value is “killed AML cells, but not normal cells”.
Turning to RLFPDFFTRV [PR2], in assay [5], the “surface HLA-A2.1 expression” value was “increased surface HLA-A2.1 expression” and the “Median Channel” value amounted to 273. In assay [6], the “peptide-specific lysis” value is given as “did not demonstrate any significant cytotoxicity”.
As to “VLQELNVTV [PR1, HLA-A2.1-restricted nonamer (aa 169-177) derived from proteinase 3]”, the “stimulation indices (SI) of PR1-specific CTL lines” value in assay [10] was 1.5 and 2.1; in assay [14], 1.3 and 2.4. For the same substance, in assay [4], the “apoptosis of high avidity PR1-CTL” value is recorded as “underwent apoptosis”. Moreover, in assay [4] (high or low concentrations of PR1), the “apoptosis of low avidity PR1-CTL” value is recorded as “did not undergo apoptosis”. Moreover, the “lysis of CML #3 BM cells by CTL elicited with 0.2 μM PR1” value in assay [11] (CTL from patient CML #1, E:T 20:1) was 24%±5%; in [11] (CTL from patient CML #2, E:T 20:1), 33%±6%. For the same substance, the “fold greater lysis of CML BM cells, CTL elicited with 0.2 μM vs 20 μM PR1” value in assay [11] (per cell basis, 4-hr cytotoxicity assay) is recorded as about 2 fold. In addition, the “specific lysis by PR1 specific CTL” value in [12] (Pr3-transfected cells (clone 1.4)) stood at 36%. Further, in [12] (normal marrow cells, HL-60, HMy2.CIR with empty vector (CAT), non-transfected parent line), the “lysis of negative control targets by PR1 specific CTL” value is “only background lysis”. Besides, the “surface HLA-A2.1 expression” value in assay [5] is recorded as “increased surface HLA-A2.1 expression”. Further, the “Median Channel” value in assay [5] was 294. Moreover, the “peptide-specific lysis” value in assay [6] is listed as “high specific lysis”. In assay [13] (0.25, 0.5 or 1.0 mg s.c. every 3 weeks for 3 injections), the “PR1-specific CTL immunity elicited (by tetramer staining)” value was 6 of 9. Moreover, the complete remissions in assay [13] (9 patients (1 AML and 1 CML patient)) is on record as 2 patients. Besides, the “lysis by PR1-specific CTL line” value in assay [7] (marrow cells from normal healthy donor (D2)) is recorded as under 20%. Further, the “specific lysis by CTL specific for PR-1” value in assay [8] (marrow cells from a patient with CML in blast crisis, E:T 25:1) came out at 73%. The “specific lysis by PR1-specific CTL line” value in [8] (marrow cells of P1 (CML in chronic phase), E:T 6:1) is recorded as 53%.

(Values after patent US20060045883A1, “Anti-cancer vaccines” (priority 2004, published 2006).)
